Assay results as given in PMC12560828, “Chemical structure drives developmental toxicity of alkyl-substituted naphthalenes in zebrafish” (Environment international, 2025).
Where “and” joins values, the source holds several entries; their conditions need not be identical. Identical values can stand only once.

What was measured:
Type in all cases: in vivo, Danio rerio
[1] = tested on: zebrafish larvae, 120 hpf; assay: Larval photomotor response (LPR) assay after vial exposure; settings: LPR
Method in brief: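 Embryos bleached at 6 hpf, exposed in sealed glass vials (8 per vial, DMSO stock at 200x) with rotation overnight at 28 °C, then singulated into chemical-free medium and kept dark at 28 °C. Movement tracked minutes 6–24 at 120 hpf, 6 s bins log-normalized to AUC; LEL per light/dark period from first cycle; nominal water concentrations, dead/malformed larvae excluded.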

[2] = tested on: zebrafish embryos; assay: Body burden measurement (GC-MS/MS) and concentration uptake ratio, vial exposure; settings: 20 μM exposure; for measured concentration in embryo extract: 32 pooled embryos, 0.5 mL extract, single replicates
Procedure: (§1) Body burden was measured for exposure to five chemicals at two timepoints: 24 and 48 hpf. […] The exposure concentration was chosen as it was the maximum possible concentration that ensured enough viable animals for collection at 48 hpf and allowed direct comparison of chemical uptake at the same exposure concentration.
(§2) Chemicals were exposed at 20 μM following the exposure procedure detailed in section 1.3, 24 vials per chemical. At 24 hpf, embryos were pooled in groups of 32 embryos (combining embryos from 4 vials) into 1.5 mL polypropylene RINO-safe lock tubes (n = 3 per chemical treatment, n = 3 per control). Tubes were briefly placed on ice to reduce embryo movement (<1 min); the remaining medium was removed; the tube was then flash frozen in liquid nitrogen and stored at −20 °C until extraction. Embryos in the remaining vials were plated as previously described in section 1.3 until collection at 48 hpf following the same procedure as 24 hpf collections (n = 3 per chemical treatment, n = 1 control).
(§3) Tissue extraction was performed as previously reported ([Rude et al., 2025]). Each sample was spiked with 25 μL internal standard in ethyl acetate and 100 μL of 1 mm glass beads (Next Advance, Troy, NY United States) were added to the RINO-safe lock tubes containing thawed tissue samples and left on ice for 10 min 250 mg of Na2SO4 and 200 μL of ethyl acetate were added to each tube and vortexed. Tubes were homogenized at speed 8 for 6 min in a Bullet Blender (Next Advance, Troy, NY, United States). 300 μL of ethyl acetate was added to each tube and the homogenization step was repeated until no pieces of non-homogenized fish tissue remained. Samples were then centrifuged for 10 min at 4 °C, 1600g. Sample supernatant (0.5 mL) was collected into amber vials and stored at 4 °C until chemical analysis.
(§4) Samples were analyzed for quantitation and identification of 161 PAHs. The method was performed with an Agilent 7890 gas chromatograph (GC), with a 7000C triple quadrupole mass spectrometer (MS/MS) using an Agilent J&W PAH select (30 m × 250 μm × 0.15 μm GC column). Calibration for each analyte utilized at least a 4-point (range: 4–7, median 6 points, n = 161) curve with R^2 ≥ 0.99. Specific instrument conditions were modified from [Anderson et al. (2015)] and are detailed in Table S3. GC–MS/MS data was analyzed using MassHunter Quantitative Analysis v.B.06.00 SP1 build 6.0.388.1 software (Agilent Corp. Wilmington,DE) ([Anderson et al., 2015]). Dynamic muti-reaction monitoring mode was used during analyses, and all PAHs were identified using analytical standards obtained from multiple sources (Table S1). Collison energies were optimized for each individual unsubstituted PAH, alkylation series (C1, C2, etc.), and when possible, specific alkylation group (i.e. methyl, ethyl, etc.).
(§5) Body burden concentrations based on average embryo wet weight at each timepoint were determined by the equation below. Total measured chemical was calculated from ng/mL concentrations times sample volume (0.5 mL). Bodyburdennmol/mgbw=total measured chemicalnmol/number of fish32×average body weightmg
(§6) Average body weights at 24 hpf and 48 hpf were assumed to be 0.31 mg and 0.26 mg, respectively as determined previously ([Rericha et al., 2024]). Statistical analysis to compare time points within chemicals was performed using a two-sided Student’s t-test (p-value ≤ 0.05). An ANOVA with a follow-up Dunn’s test was used to compare body burden between chemicals at 24 hpf (p-value ≤ 0.05). Body burden concentrations at 24 hpf were compared to the estimated percent effect of each measured chemical at the exposure concentration used for body burden analysis (20 μM). These estimates were made using the fitted concentration-response curves previously described in section 2.3.2.2.
(§7) Concentration uptake ratios between vial exposures and 96-well plate exposures were compared using a two-sided Student’s t-test, p-values ≤ 0.05 were considered significant. […]

[3] = as above; settings: zebrafish (Danio rerio), whole embryos (32 pooled, ethyl acetate extract), other: waterborne exposure of embryos in sealed vials, 20 μM exposure, 32 pooled embryos, 0.5 mL extract, single replicates, read-out: measured concentration in embryo extract
Procedure: as §1, §2, §3, §4, §5, §6, §7

[4] = period dark, round 1, conc 3.125
[5] = period dark, round 1, conc 6.25
[6] = period dark, round 1, conc 12.5
[7] = period dark, round 2, conc 37.5
[8] = period light, round 1, conc 3.125
[9] = period light, round 1, conc 6.25
[10] = period light, round 1, conc 12.5
[11] = period light, round 2, conc 37.5

Work on `Cc1cccc2c(C)cccc12` [1,5-dimethylnaphthalene] yielded a fold_change [1, 4] of 0.2385, a fold_change [1, 5] of 0.04355 and a fold_change [1, 6] of 0.0001175. The fold_change ([1]; period dark, round 1, conc 25) was -0.1166, the fold_change ([1]; period dark, round 2, conc 30) was -0.72 and the fold_change [1, 7] was -0.6231. For the same molecule, the fold_change [1, 8] was 0.2204, the fold_change [1, 9] was 0.1087 and the fold_change [1, 10] was 0.8122. The fold_change ([1]; period light, round 1, conc 25) was 0.799, the fold_change ([1]; period light, round 2, conc 30) was 0.3918 and the fold_change [1, 11] was 0.2643. The “measured concentration in embryo extract” value ([2]; 24 hpf) was 28000 ng/mL and 23900 ng/mL, the “measured concentration in embryo extract” value ([2]; 48 hpf) was 9300 ng/mL and 7200 ng/mL and the concentration at 24 hpf, 20 μM [3] was 29200 ng/mL. For the same molecule, the concentration at 48 hpf, 20 μM [3] was 9160 ng/mL.

`Cc1ccc2cccc(C)c2c1` [1,7-dimethylnaphthalene] showed a fold_change [1, 4] of -0.2153, a fold_change [1, 5] of -0.5415 and a fold_change [1, 6] of -0.6708. The fold_change ([1]; period dark, round 1, conc 25) was -0.6391, the fold_change [1, 8] was -0.5634 and the fold_change [1, 9] was -0.1569. The fold_change [1, 10] was -0.05053, the fold_change ([1]; period light, round 1, conc 25) was 0.1308 and the body burden concentration ([2]; 24 hpf) was “highest concentration”. For the same molecule, the “measured concentration in embryo extract” value ([2]; 24 hpf) was 33000 ng/mL and 33300 ng/mL, the “measured concentration in embryo extract” value ([2]; 48 hpf) was 11600 ng/mL and 10100 ng/mL and the concentration at 24 hpf, 20 μM [3] was 34600 ng/mL. For the same molecule, the concentration at 48 hpf, 20 μM [3] was 11300 ng/mL.

With `Cc1cc(C)c2c(C)cccc2c1` [2,4,5-trimethylnaphthalene] the fold_change [1, 4] was -0.1188, the fold_change [1, 5] was -0.09148 and the fold_change [1, 6] was -0.4407. It also gave a fold_change ([1]; period dark, round 2, conc 12.8) of -0.3131, a fold_change ([1]; period dark, round 2, conc 16) of -0.104 and a fold_change ([1]; period dark, round 2, conc 20) of -0.2326. It also gave a fold_change [1, 8] of -0.1438, a fold_change [1, 9] of -0.1964 and a fold_change [1, 10] of 0.215. It also gave a fold_change ([1]; period light, round 2, conc 12.8) of -0.6609, a fold_change ([1]; period light, round 2, conc 16) of 0.3746 and a fold_change ([1]; period light, round 2, conc 20) of 0.3257. The “percent reduction in body burden between 24 and 48 hpf” value [2] was 46%, the “measured concentration in embryo extract” value ([2]; 24 hpf) was 9270 ng/mL and 6860 ng/mL and the “measured concentration in embryo extract” value ([2]; 48 hpf) was 4950 ng/mL and 4550 ng/mL and 2080 ng/mL. It also gave a concentration at 24 hpf, 20 μM [3] of 9620 ng/mL.

Work on `Cc1ccc2ccc(C)cc2c1` [2,7-dimethylnaphthalene] yielded a fold_change [1, 4] of 0.1561, a fold_change [1, 5] of -0.165 and a fold_change [1, 6] of -0.13. It also gave a fold_change ([1]; period dark, round 1, conc 25) of -0.7363, a fold_change ([1]; period dark, round 1, conc 50) of -0.8227 and a fold_change [1, 8] of 0.7628. For the same molecule, the fold_change [1, 9] was 0.4574, the fold_change [1, 10] was 1.067 and the fold_change ([1]; period light, round 1, conc 25) was 1.005. For the same molecule, the fold_change ([1]; period light, round 1, conc 50) was 0.2181, the “measured concentration in embryo extract” value ([2]; 24 hpf) was 19900 ng/mL and the “measured concentration in embryo extract” value ([2]; 48 hpf) was 8080 ng/mL and 7630 ng/mL. It also gave a concentration at 24 hpf, 20 μM [3] of 26500 ng/mL and a concentration at 48 hpf, 20 μM [3] of 8890 ng/mL.

With `CCc1ccc2ccccc2c1` [2-ethylnaphthalene] the fold_change [1, 4] was -0.0209, the fold_change [1, 5] was -0.02917 and the fold_change [1, 6] was -0.4131. It also gave a fold_change ([1]; period dark, round 1, conc 25) of -0.9177, a fold_change ([1]; period dark, round 2, conc 30) of -0.0665 and a fold_change [1, 7] of -0.3116. It also gave a fold_change [1, 8] of -0.3417, a fold_change [1, 9] of 0.05317 and a fold_change [1, 10] of 0.3434. For the same molecule, the fold_change ([1]; period light, round 1, conc 25) was -0.2321, the fold_change ([1]; period light, round 2, conc 30) was 0.3708 and the fold_change [1, 11] was -0.3232.
